Columns and labels:
Type in all cases: functional
Tetranychus urticae = assay: Acaricidal activity against Tetranychus urticae (two-spotted spider mite) assessed as mortality at 500 ppm; settings: for mortality at 500 ppm: Tetranychus urticae
Chilo suppressalis [1] = assay: Insecticidal activity against Chilo suppressalis (rice stem borer) assessed as mortality at 50 ug/g administered as topical application
Spodoptera litura = assay: Insecticidal activity against Spodoptera litura assessed as mortality at 500 ppm; settings: for mortality at 500 ppm: Spodoptera litura
Nilaparvata lugens = assay: Insecticidal activity against Nilaparvata lugens (brown planthopper) assessed as mortality at 50 ppm; settings: for mortality at 50 ppm: Nilaparvata lugens
Culex pipiens molestus = assay: Insecticidal activity against Culex pipiens molestus assessed as mortality at 5 ppm; settings: for mortality at 5 ppm: Culex pipiens
Chilo suppressalis [2] = assay: Insecticidal activity against Chilo suppressalis (rice stem borer) assessed as mortality compound administered as topical application

Structure (SMILES)	mortality at 500 ppm (Tetranychus urticae) [%]	mortality (Chilo suppressalis [1]) [%]	mortality at 500 ppm (Spodoptera litura) [%]	mortality at 50 ppm (Nilaparvata lugens) [%]	mortality at 5 ppm (Culex pipiens molestus) [%]	LD50 (Chilo suppressalis [2]) [mg/kg]	mortality (Tetranychus urticae) [%]	mortality (Spodoptera litura) [%]	mortality (Nilaparvata lugens) [%]	mortality (Culex pipiens molestus) [%]
CCOP(=O)(OCC)[C@]1(C#N)SC[C@H](CN(C)C)CS1.O=C(O)C(=O)O	100	60	10	80	100	–	–	–	–	–
CN(C)CC1CSC(C(=O)c2ccccc2)(C(=O)c2ccccc2)SC1	–	100	–	–	–	13.5	80	0	100	100
CN(C)CC1CSC(C(=O)c2ccccc2)(C(=O)c2ccccc2)SC1.O=C(O)C(=O)O	100	100	0	100	100	–	–	–	–	–
CN(C)C[C@H]1CS[C@](C#N)(c2ccc(Cl)cc2)SC1	70	100	0	100	100	–	–	–	–	–
CN(C)C[C@H]1CS[C@@](C#N)(c2ccc(Cl)cc2)SC1	90	100	0	100	100	–	–	–	–	–
CCN(CC)C(=O)[C@]1(C#N)SC[C@@H](CN(C)C)CS1.O=C(O)C(=O)O	100	100	100	100	95	5.8	–	–	–	–
CCN(CC)C(=O)[C@]1(C#N)SC[C@H](CN(C)C)CS1	–	100	–	–	–	5.6	90	100	100	100
CCN(CC)C(=O)[C@]1(C#N)SC[C@H](CN(C)C)CS1.O=C(O)C(=O)O	100	100	100	80	100	7.2	–	–	–	–
CCOP(=O)(OCC)[C@]1(C#N)SC[C@@H](CN(C)C)CS1.O=C(O)C(=O)O	100	100	70	100	100	–	–	–	–	–
CCOC(=O)[C@H]1SC[C@H](CN(C)C)CS1.O=C(O)C(=O)O	100	0	0	30	5	–	–	–	–	–
CN(C)CC1CSSSC1.O=C(O)C(=O)O	100	100	100	100	100	7.5	–	–	–	–
CN(C)CC1CCSS1.O=C(O)C(=O)O (stereo not drawn)	100	100	30	80	100	4.3	–	–	–	–
CN(C)CC1CSSC1.O=C(O)C(=O)O	100	100	90	100	100	11.4	–	–	–	–
CN(C)CC(S)CCS.O=C(O)C(=O)O (stereo not drawn)	100	100	60	100	45	–	–	–	–	–
CN(C)CC(CS)CS.O=C(O)C(=O)O	100	100	30	100	100	–	–	–	–	–
CNC(=O)SCCC(CN(C)C)SC(=O)NC (stereo not drawn)	30	100	0	100	5	–	–	–	–	–
CC(C)NC(=O)SCCC(CN(C)C)SC(=O)NC(C)C (stereo not drawn)	50	100	0	45	65	24.5	–	–	–	–
CNC(=S)SCCC(CN(C)C)SC(=S)NC (stereo not drawn)	80	100	10	70	70	15.8	–	–	–	–
CC(=O)SCC(CSC(C)=O)CN(C)C.O=C(O)C(=O)O	100	100	70	100	100	32.5	–	–	–	–
CN(C)CC(CSC(=O)c1ccccc1)CSC(=O)c1ccccc1	100	100	10	100	100	4	–	–	–	–
CCC(=O)SCC(CSC(=O)CC)CN(C)C	–	100	–	–	–	7.6	100	40	70	100
CCC(=O)SCC(CSC(=O)CC)CN(C)C.O=C(O)C(=O)O	100	100	–	70	–	6.6	–	0	–	75

— ChEMBL document CHEMBL3045009, “Synthesis and Biological Activity of the Functional Derivatives of 3- and 4-(Dimethyl-aminomethyl)-1,2-dithiolanes” (1992)
